# Data from patent publication US4551534A, “Aralkyl or aryloxyalkyl 1,7-naphthyridine-3-carboxylic acid esters” (American Home Products Corporation, priority 1984, dated 1985).
# How the values were obtained:
# [1] = system: isolated paced intact rabbit atria; experiment: Cardiac depressant (negative inotropic) effects in isolated paced intact rabbit atria; conditions: 3 Hz, 30° C., cumulative 10^-9 M to 10^-5 M
# Procedure: (§1) The potential for detrimental cardiac depressant (negative inotropic) effects of the compounds of this invention was assessed in isolated paced intact rabbit atria. […] Muscles (N=5-9/compound) were stimulated at a frequency of 3 Hz with a WPI stimulator for a 60 minute equilibration period. Changes in isometric force were recorded as described for the aortic smooth muscle experiments,supra. […]
# [2] = system: spontaneously hypertensive rats; experiment: Hypotensive in vivo effect: systolic blood pressure of spontaneously hypertensive rats; parameters: species or system rat; conditions: 50 mg/kg oral, group of 4 spontaneously hypertensive rats
# Procedure: The hypotensive in vivo effect of the compounds of this invention was determined by measuring changes in the systolic blood pressure of spontaneously hypertensive rats with a Decker Caudal Plethysmograph. The compound being tested was administered to a group of 4 rats and their systolic pressure was determined prior to and at 1.5 and 4 hours after compound administration. Initial testing was done by oral administration of the compound at a dose of 50 mg/kg body weight. Results (mmHg) are expressed as decreases in systolic blood pressure.
# (§2) The following examples illustrate the preparation of a representative number of compounds of this invention. After each example, the Ca^+2 antagonist activity of the compound is presented in terms of percent relaxation (P.R.) at 10^-5 M concentration unless indicated otherwise. Similarly, the antihypertensive activity is reported in terms of millimeters mercury (mmHg) blood pressure (B.P.) reduction at the stated time post 50 mg/kg oral dosing or other dosing as indicated.
# [3] = system: rabbit aortic smooth muscle; experiment: Ca+2 antagonism: relaxation of KCl-depolarized rabbit aortic smooth muscle strips; conditions: Oryctolagus cuniculus, 20 min; 10^-5 M; 100 mM KCl contraction; mean of two experiments 20 minutes after addition; read-out: percent relaxation (P.R.)
# Procedure: The composition of PSS was as follows (mM): NaCl 112, KCl 5, NaHCO3 25, KH2 PO4 1, MgSO4 1.2, CaCL2 2.5, dextrose 10. The lower end of each tissue strip was attached to a fixed post and the upper end to a Statham UC-4 transducer. Changes in force development were recorded on a Beckman Dynograph Polygraphic Recorder.
# Following equilibration, the muscles were contracted in a depolarizing solution of PSS in which 100 mM KCl was substituted for an equimolar concentration of NaCl. Following attainment of steady-state isometric force (20 min.), the test compound was added to afford a final concentration of 1×10^-5 M. The inhibitory effect, expressed as percent relaxation, was determined from the mean of two experiments twenty minutes after the addition of the compound being tested.
# as §2
# [4] = system: spontaneously hypertensive rats; experiment: Hypotensive in vivo effect: systolic blood pressure of spontaneously hypertensive rats; parameters: species or system rat; conditions: 50 mg/kg oral
# [5] = Cardiac depressant (negative inotropic) effects in isolated paced intact rabbit atria; conditions: isolated paced atria, 10^-5 M, read-out: inhibition (of developed isometric force) at the highest concentration
# Procedure: as §1
smiles,measurement,setting,value
"COC(=O)C1=C(C)NC2=C(C(=O)CN(CC(O)COc3cccc(C)c3C)C2)C1c1ccccc1C (stereo not shown) [Example 1, 7-[3-(2,3-Dimethylphenoxy)-2-hydroxypropyl]-1,4,5,6,7,8-hexahydro-2-methyl-4-(2-methylphenyl)-5-oxo-1,7-naphthyridine-3-carboxylic acid methyl ester]",IC25 (concentration which produces 25% inhibition of isometric force),[1],> 10 µM
same,blood pressure (B.P.) reduction at 1.5 hours,[2],-30 mmHg
same,blood pressure (B.P.) reduction at 4 hours,[2],-34 mmHg
same,inhibition at 10 µM,[3],91%
"COC(=O)C1=C(C)NC2=C(C(=O)CN(CC(O)COc3cccc(C)c3C)C2)C1c1c(F)c(F)c(F)c(F)c1F (stereo not shown) [Example 2, 7-[3-(2,3-Dimethylphenoxy)-2-hydroxypropyl]-1,4,5,6,7,8-hexahydro-2-methyl-5-oxo-4-(pentafluorophenyl)-1,7-naphthyridine-3-carboxylic acid methyl ester]",blood pressure (B.P.) reduction at 24 hours,[4],-28 mmHg
same,IC25 (concentration which produces 25% inhibition of isometric force),[1],5 µM
same,blood pressure (B.P.) reduction at 1.5 hours,[2],-56 mmHg
same,blood pressure (B.P.) reduction at 4 hours,[2],-86 mmHg
same,inhibition at 10 µM,[3],65%
COC(=O)C1=C(C)NC2=C(C(=O)CN(CC(O)COc3cccc(C)c3C)C2)C1c1c(F)c(F)cc(F)c1F (stereo not shown) [Example 3],IC25 (concentration which produces 25% inhibition of isometric force),[1],6 µM
same,blood pressure (B.P.) reduction at 1.5 hours,[2],-25 mmHg
same,blood pressure (B.P.) reduction at 4 hours,[2],-56 mmHg
same,inhibition at 10 µM,[3],63%
"COC(=O)C1=C(C)NC2=C(C(=O)CN(CC(O)COc3cccc(C)c3C)C2)C1c1c(F)ccc(Cl)c1Cl (stereo not shown) [Example 4, 4-(2,3-Dichloro-6-fluorophenyl)-7-[3-(2,3-dimethylphenoxy)-2-hydroxypropyl]1,4,5,6,7,8-hexahydro-2-methyl-5-oxo-1,7-naphthyridine-3-carboxylic acid methyl ester]",IC25 (concentration which produces 25% inhibition of isometric force),[1],> 10 µM
same,blood pressure (B.P.) reduction at 1.5 hours,[2],-56 mmHg
same,blood pressure (B.P.) reduction at 4 hours,[2],-72 mmHg
same,inhibition at 10 µM,[3],42%
"COC(=O)C1=C(C)NC2=C(C(=O)CN(CC(O)COc3cccc(Cl)c3Cl)C2)C1c1ccccc1C (stereo not shown) [Example 5, 7-[3-(2,3-Dichlorophenoxy)-2-hydroxypropyl]-1,4,5,6,7,8-hexahydro-2-methyl-4-(2-methylphenyl)-5-oxo-1,7-naphthyridine-3-carboxylic acid methyl ester]",IC25 (concentration which produces 25% inhibition of isometric force),[1],> 10 µM
same,blood pressure (B.P.) reduction at 1.5 hours,[2],-23 mmHg
same,blood pressure (B.P.) reduction at 4 hours,[2],-25 mmHg
same,inhibition at 10 µM,[3],62%
"COC(=O)C1=C(C)NC2=C(C(=O)CN(CC(O)COc3ccccc3)C2)C1c1c(F)c(F)c(F)c(F)c1F (stereo not shown) [Example 6, 1,4,5,6,7,8-Hexahydro-2-methyl-5-oxo-4-(pentafluorophenyl)-7-(3-phenoxy-2-hydroxypropyl)-1,7-naphthyridine-3-carboxylic acid methyl ester]",IC25 (concentration which produces 25% inhibition of isometric force),[1],4.5 µM
same,blood pressure (B.P.) reduction at 1.5 hours,[2],-54 mmHg
same,blood pressure (B.P.) reduction at 4 hours,[2],-80 mmHg
same,inhibition at 10 µM,[3],67%
"COC(=O)C1=C(C)NC2=C(C(=O)CN(CC(O)COc3ccc(OC)cc3)C2)C1c1c(F)c(F)c(F)c(F)c1F (stereo not shown) [Example 7, 1,4,5,6,7,8-Hexahydro-7-[3-(4-methoxyphenoxy)-2-hydroxypropyl]-2-methyl-5-oxo-4-(pentafluorophenyl)-1,7-naphthyridine-3-carboxylic acid methyl ester]",IC25 (concentration which produces 25% inhibition of isometric force),[1],5 µM
same,blood pressure (B.P.) reduction at 1.5 hours,[2],-31 mmHg
same,blood pressure (B.P.) reduction at 4 hours,[2],-56 mmHg
same,inhibition at 10 µM,[3],73%
"COC(=O)C1=C(C)NC2=C(C(=O)CN(CC(O)COc3cccc(C)c3C)C2)C1c1cccc(Cl)c1Cl (stereo not shown) [Example 8, 4-(2,3-Dichlorophenyl)-7-[3-(2,3-dimethylphenoxy)-2-hydroxypropyl]-1,4,5,6,7,8-hexahydro-2-methyl-5-oxo-1,7-naphthyridine-3-carboxylic acid methyl ester]",IC25 (concentration which produces 25% inhibition of isometric force),[1],7 µM
same,blood pressure (B.P.) reduction at 1.5 hours,[2],-16 mmHg
same,blood pressure (B.P.) reduction at 4 hours,[2],-41 mmHg
same,inhibition at 10 µM,[3],50%
"COC(=O)C1=C(C)NC2=C(C(=O)CN(CCCOc3ccccc3)C2)C1c1c(F)c(F)c(F)c(F)c1F (stereo not shown) [Example 9, 1,4,5,6,7,8-Hexahydro-2-methyl-5-oxo-4-(pentafluorophenyl)-7-(3-phenoxypropyl)-1,7-naphthyridine-3-carboxylic acid methyl ester]",IC25 (concentration which produces 25% inhibition of isometric force),[1],3.5 µM
same,blood pressure (B.P.) reduction at 1.5 hours,[2],-43 mmHg
same,blood pressure (B.P.) reduction at 4 hours,[2],-41 mmHg
same,inhibition at 10 µM,[3],61%
"COC(=O)C1=C(C)NC2=C(C(=O)CN(CC(O)CCc3ccccc3)C2)C1c1c(F)c(F)c(F)c(F)c1F (stereo not shown) [Example 10, 1,4,5,6,7,8-Hexahydro-7-(2-hydroxy-4-phenylbutyl)-2-methyl-5-oxo-4-(pentafluorophenyl)-1,7-naphthyridine-3-carboxylic acid methyl ester]",IC25 (concentration which produces 25% inhibition of isometric force),[1],3 µM
same,blood pressure (B.P.) reduction at 1.5 hours,[2],-41 mmHg
same,blood pressure (B.P.) reduction at 4 hours,[2],-51 mmHg
same,inhibition at 10 µM,[3],80.5%
"COC(=O)C1=C(C)NC2=C(C(=O)CN(CC(O)c3ccccc3)C2)C1c1c(F)c(F)c(F)c(F)c1F (stereo not shown) [Example 11, 1,4,5,6,7,8-Hexahydro-7-(2-hydroxy-2-phenylethyl)-2-methyl-5-oxo-4-pentafluorophenyl-1,7-naphthyridine-3-carboxylic acid methyl ester]",blood pressure (B.P.) reduction at 1.5 hours,[2],-58 mmHg
same,blood pressure (B.P.) reduction at 4 hours,[2],-73 mmHg
same,inhibition at 10 µM,[3],66.5%
"NCCCCCCNS(=O)(=O)c1cccc2c(Cl)cccc12 [Example W-7, reference compound]",inhibition at 10 µM,[5],< 20%
"COc1ccc(CCN(C)CCCC(C#N)(c2ccc(OC)c(OC)c2)C(C)C)cc1OC (stereo not shown) [Verapamil, reference compound]",IC25 (concentration which produces 25% inhibition of isometric force),[1],0.06 µM
"CCOC(=O)C1=C(C)NC(C)=C(C(=O)OC)C1c1cccc(Cl)c1Cl (stereo not shown) [felodipine, reference compound]",IC25 (concentration which produces 25% inhibition of isometric force),[1],0.8 µM
"COC(=O)C1=C(C)NC(C)=C(C(=O)OC)C1c1ccccc1[N+](=O)[O-] [nifedipine, reference compound]",IC25 (concentration which produces 25% inhibition of isometric force),[1],0.05 µM
"CCOC(=O)C1=C(C)NC(C)=C(C(=O)OC)C1c1cccc([N+](=O)[O-])c1 (stereo not shown) [nitrendipine, reference compound]",IC25 (concentration which produces 25% inhibition of isometric force),[1],0.35 µM
